According to patent publication US20250122174A1 (Shenzhen Yuanli Shenwan Innovative Medicine Co., Ltd., priority 2022, published 2025):
pIC50: −log10 of the molar value.

target: HPK1 (Homo sapiens (Human), UniProt Q92918); test: HPK1 Inhibition Assay (ADP-Glo kinase assay); format: biochemical; details: ATP 10 μM
Outline: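 ADP-Glo luminescence read-out after 1 h room-temperature kinase reaction with 10 μM ATP and 0.1 μg/ml MBP. Recombinant human HPK1 at 7.5 ng/μl; buffer 40 mM Tris pH 7.5, 20 mM MgCl2. Compounds serially diluted 5-fold over 10 points from 10 mM DMSO stock.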

Sequence of HPK1 (Q92918 1-346 limits assumed): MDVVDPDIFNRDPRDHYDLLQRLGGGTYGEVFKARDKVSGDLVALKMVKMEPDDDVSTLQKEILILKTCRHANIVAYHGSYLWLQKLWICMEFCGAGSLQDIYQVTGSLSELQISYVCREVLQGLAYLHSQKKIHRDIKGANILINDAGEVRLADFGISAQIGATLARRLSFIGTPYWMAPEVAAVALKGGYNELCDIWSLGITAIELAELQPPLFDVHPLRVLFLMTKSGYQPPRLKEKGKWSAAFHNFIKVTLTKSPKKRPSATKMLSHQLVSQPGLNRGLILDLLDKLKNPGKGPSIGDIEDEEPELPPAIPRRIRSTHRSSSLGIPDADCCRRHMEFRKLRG

SMILES	pIC50
[2H]C([2H])([2H])C(n1ncc2c(N3C[C@@H](C)[C@@H](N)C3)c(NC(=O)c3ccc(=O)n(-c4c(F)cccc4F)n3)ccc21)C([2H])([2H])[2H] [Example 278, N-(4-((3R,4R)-3-amino-4-methylpyrrolidin-1-yl)-1-(propan-2-yl-1,1,1,3,3,3-d6)-1H-indazol-5-yl)-1-(2,6-difluorophenyl)-6-oxo-1,6-dihydropyridazine-3-carboxamide]	> 7.00
COc1cccc(F)c1-c1nccc(C(=O)Nc2ccc3c(nc(C)n3C)c2C2C[C@H]3C[C@@H]2CN3)c1F (stereo partly drawn) [Example 7, N-(4-((1S,4S)-2-azabicyclo[2.2.1]heptan-5-yl)-1,2-dimethyl-1H-benzo[d]imidazol-5-yl)-3-fluoro-2-(2-fluoro-6-methoxyphenyl)isonicotinamide]	> 7.00
Cn1c(C(C)(C)C)nc2c(N3CC[C@@H](N)C3)c(NC(=O)c3ccc(=O)n(-c4c(F)cccc4F)n3)ccc21 [Example 99, (R)-N-(4-(3-aminopyrrolidin-1-yl)-2-(tert-butyl)-1-methyl-1H-benzo[d]imidazol-5-yl)-1-(2,6-difluorophenyl)-6-oxo-1,6-dihydropyridazine-3-carboxamide]	> 7.00
C[C@@H]1CN(c2c(NC(=O)c3ccc(=O)n(-c4c(F)cccc4F)n3)ccc3nn(C45CC(C(F)(F)F)(C4)C5)cc23)C[C@@H]1N [Example 319, N-(4-((3R,4R)-3-amino-4-methylpyrrolidin-1-yl)-2-(3-(trifluoromethyl)bicyclo[1.1.1]pentan-1-yl)-2H-indazol-5-yl)-1-(2,6-difluorophenyl)-6-oxo-1,6-dihydropyridazine-3-carboxamide]	> 7.00
N[C@@H]1CCCN(c2c(NC(=O)c3ccc(=O)n(-c4c(F)cccc4F)n3)ccc3c2cnn3[C@@H]2CCOC2)C1 [Example 264, N-(4-((R)-3-aminopiperidin-1-yl)-1-((R)-tetrahydrofuran-3-yl)-1H-indazol-5-yl)-1-(2,6-difluorophenyl)-6-oxo-1,6-dihydropyridazine-3-carboxamide]	> 7.00
CO[C@H]1CN(c2c(NC(=O)c3ccc(=O)n(-c4c(F)cccc4F)n3)ccc3c2cnn3C(C)C)C[C@H]1N [Example 205, N-(4-((3R,4S)-3-amino-4-methoxypyrrolidin-1-yl)-1-isopropyl-1H-indazol-5-yl)-1-(2,6-difluorophenyl)-6-oxo-1,6-dihydropyridazine-3-carboxamide]	> 7.00
COCCn1ncc2c(N3CC[C@@H](N)C3)c(NC(=O)c3ccc(=O)n(-c4c(F)cccc4F)n3)ccc21 [Example 285, (R)-N-(4-(3-aminopyrrolidin-1-yl)-1-(2-methoxyethyl)-1H-indazol-5-yl)-1-(2,6-difluorophenyl)-6-oxo-1,6-dihydropyridazine-3-carboxamide]	> 7.00
CC1(n2cc3c(N4C[C@H](N)C5(CC5)C4)c(NC(=O)c4ccc(=O)n(-c5c(F)cccc5F)n4)ccc3n2)CC1 [Example 311, (R)-N-(4-(7-amino-5-azaspiro[2.4]heptan-5-yl)-2-(1-methylcyclopropyl)-2H-indazol-5-yl)-1-(2,6-difluorophenyl)-6-oxo-1,6-dihydropyridazine-3-carboxamide]	> 7.00
CC(C)n1ncc2c(N3CCC[C@@H]3CN)c(NC(=O)c3ccc(=O)n(-c4c(F)cccc4F)n3)ccc21 [Example 181, (R)-N-(4-(2-(aminomethyl)pyrrolidin-1-yl)-1-isopropyl-1H-indazol-5-yl)-1-(2,6-difluorophenyl)-6-oxo-1,6-dihydropyridazine-3-carboxamide]	> 7.00
C[C@H]1CN(c2c(NC(=O)c3ccc(=O)n(-c4c(F)cccc4F)n3)ccc3c2cnn3[C@H]2CCOC2)C[C@@H]1N [Example 260, N-(4-((3R,4S)-3-amino-4-methylpyrrolidin-1-yl)-1-((S)-tetrahydrofuran-3-yl)-1H-indazol-5-yl)-1-(2,6-difluorophenyl)-6-oxo-1,6-dihydropyridazine-3-carboxamide]	> 7.00
COCCn1cc2c(N3CC[C@@H](N)C3)c(NC(=O)c3ccc(=O)n(-c4c(F)cccc4F)n3)ccc2n1 [Example 328, (R)-N-(4-(3-aminopyrrolidin-1-yl)-2-(2-methoxyethyl)-2H-indazol-5-yl)-1-(2,6-difluorophenyl)-6-oxo-1,6-dihydropyridazine-3-carboxamide]	> 7.00
CC[C@H](C)n1ncc2c(N3C[C@@H](C)[C@@H](N)C3)c(NC(=O)c3ccc(=O)n(-c4c(F)cccc4F)n3)ccc21 [Example 256, N-(4-((3R,4R)-3-amino-4-methylpyrrolidin-1-yl)-1-((S)-sec-butyl)-1H-indazol-5-yl)-1-(2,6-difluorophenyl)-6-oxo-1,6-dihydropyridazine-3-carboxamide]	> 7.00
C[C@@H]1CN(c2c(NC(=O)c3ccc(=O)n(-c4c(F)cccc4F)n3)ccc3c2cnn3C(C)(C)C)C[C@@H]1N [Example 303, N-(4-((3R,4R)-3-amino-4-methylpyrrolidin-1-yl)-1-(tert-butyl)-1H-indazol-5-yl)-1-(2,6-difluorophenyl)-6-oxo-1,6-dihydropyridazine-3-carboxamide]	> 7.00
CC1(C)CN(c2c(NC(=O)c3ccc(=O)n(-c4c(F)cccc4F)n3)ccc3nn([C@H]4CCOC4)cc23)C[C@@H]1N [Example 324, N-(4-((R)-4-amino-3,3-dimethylpyrrolidin-1-yl)-2-((S)-tetrahydrofuran-3-yl)-2H-indazol-5-yl)-1-(2,6-difluorophenyl)-6-oxo-1,6-dihydropyridazine-3-carboxamide]	> 7.00
C[C@@H]1CN(c2c(NC(=O)c3ccc(=O)n(-c4c(F)cccc4F)n3)ccc3c2cnn3C2CCOCC2)C[C@@H]1N [Example 261, N-(4-((3R,4R)-3-amino-4-methylpyrrolidin-1-yl)-1-(tetrahydro-2H-pyran-4-yl)-1H-indazol-5-yl)-1-(2,6-difluorophenyl)-6-oxo-1,6-dihydropyridazine-3-carboxamide]	> 7.00
Cn1c(C(C)(C)C)nc2c(N3CCC(N)(CO)C3)c(NC(=O)c3ccc(=O)n(-c4c(F)cccc4F)n3)ccc21 (centres unmarked) [Example 105, N-(4-(3-amino-3-(hydroxymethyl)pyrrolidin-1-yl)-2-(tert-butyl)-1-methyl-1H-benzo[d]imidazol-5-yl)-1-(2,6-difluorophenyl)-6-oxo-1,6-dihydropyridazine-3-carboxamide]	> 7.00
CC1(C)CN(c2c(NC(=O)c3ccc(=O)n(-c4c(F)cccc4F)n3)ccc3nn([C@H]4CCOC4)cc23)C[C@H]1N [Example 325, N-(4-((S)-4-amino-3,3-dimethylpyrrolidin-1-yl)-2-((S)-tetrahydrofuran-3-yl)-2H-indazol-5-yl)-1-(2,6-difluorophenyl)-6-oxo-1,6-dihydropyridazine-3-carboxamide]	> 7.00
C[C@H]1CN(c2c(NC(=O)c3ccc(=O)n(-c4c(F)cccc4F)n3)ccc3nn(C4(C)CC4)cc23)C[C@@H]1N [Example 310, N-(4-((3R,4S)-3-amino-4-methylpyrrolidin-1-yl)-2-(1-methylcyclopropyl)-2H-indazol-5-yl)-1-(2,6-difluorophenyl)-6-oxo-1,6-dihydropyridazine-3-carboxamide]	> 7.00
N#Cc1ccncc1-c1ccc(NC(=O)c2ccc(=O)n(-c3c(F)cccc3F)n2)c(N2CCC(O)CC2)c1 [Example 349, N-(4-(4-cyanopyridin-3-yl)-2-(4-hydroxypiperidin-1-yl)phenyl)-1-(2,6-difluorophenyl)-6-oxo-1,6-dihydropyridazine-3-carboxamide]	> 7.00
N#Cc1ccncc1-c1ccc(NC(=O)c2ccc(=O)n(-c3c(F)cccc3F)n2)c(N2CC[C@@](N)(CO)C2)c1 (single isomer, unassigned) [Example 355]	> 7.00
COc1cccc(F)c1-c1nccc(C(=O)Nc2cc(F)ccc2N2C[C@@H]3C[C@H]2CN3)c1F [Example 1, N-(2-((1S,4S)-2,5-diazabicyclo[2.2.1]heptan-2-yl)-5-fluorophenyl)-3-fluoro-2-(2-fluoro-6-methoxyphenyl)isonicotinamide]	6.00 to 7.00
CC[C@H]1CN(c2c(NC(=O)c3ccc(=O)n(-c4c(F)cccc4F)n3)cc(F)c3c2cnn3C(C)C)C[C@H]1N [Example 203, N-(4-((35,4S)-3-amino-4-ethylpyrrolidin-1-yl)-7-fluoro-1-isopropyl-1H-indazol-5-yl)-1-(2,6-difluorophenyl)-6-oxo-1,6-dihydropyridazine-3-carboxamide]	> 7.00
Cc1nc2c(N3C[C@H](N)C4(CC4)C3)c(NC(=O)c3ccc(=O)n(-c4c(F)cccc4F)n3)ccc2n1C [Example 91, (R)-N-(4-(7-amino-5-azaspiro[2.4]heptan-5-yl)-1,2-dimethyl-1H-benzo[d]imidazol-5-yl)-1-(2,6-difluorophenyl)-6-oxo-1,6-dihydropyridazine-3-carboxamide]	> 7.00
COc1cccc(F)c1-n1cccc(C(=O)Nc2cc(F)c3c(cnn3C)c2N2C[C@H]3C[C@@H]2CN3)c1=O [Example 53, N-(4-((1R,4R)-2,5-diazabicyclo[2.2.1]heptan-2-yl)-7-fluoro-1-methyl-1H-indazol-5-yl)-1-(2-fluoro-6-methoxyphenyl)-2-oxo-1,2-dihydropyridine-3-carboxamide]	6.00 to 7.00
Cn1c(C(F)F)nc2c(N3CC[C@@H](N)C3)c(NC(=O)c3ccc(=O)n(-c4c(F)cccc4F)n3)ccc21 [Example 159, (R)-N-(4-(3-aminopyrrolidin-1-yl)-2-(difluoromethyl)-1-methyl-1H-benzo[d]imidazol-5-yl)-1-(2,6-difluorophenyl)-6-oxo-1,6-dihydropyridazine-3-carboxamide]	> 7.00
N[C@@H]1CCN(c2c(NC(=O)c3ccc(=O)n(-c4c(F)cccc4F)n3)ccc3nn(CC(F)(F)F)cc23)C1 [Example 338, (R)-N-(4-(3-aminopyrrolidin-1-yl)-2-(2,2,2-trifluoroethyl)-2H-indazol-5-yl)-1-(2,6-difluorophenyl)-6-oxo-1,6-dihydropyridazine-3-carboxamide]	> 7.00
